Measurements reported in US8877944B2, “3-oxo-2,3-dihydro-1H-isoindole-4-carboxamides as PARP inhibitors” (Nerviano Medical Sciences S.R.L., priority 2009, dated 2014).

Key:
PARP-2 FL = PARP-2 FL (Homo sapiens (Human), UniProt Q9UGN5); assay: Fluorescence polarization probe displacement assay, PARP-2; assay type: binding; details: read-out: PARP-2 DC50; half maximal displacement concentration
Experimental: (§1) Affinity evaluation of the tested compounds and their selectivity with respect to the different PARP isoforms of interest was assessed in a displacement assay.
(§2) The polarization signal can be measured, e.g., by a plate reader such as the Saphire2 (Tecan). The displacement ability of the test compound is in correlation with the compound affinity for the NAD pocket of the enzyme.
(§3) The assay performances were then evaluated (Z′ factor) as well as the displacement of the probe by its scaffold and known commercially available PARP inhibitors. In all of the experiments, the polarization signal was measured using a Saphire2 plate reader (Tecan). Data analysis was performed using Dynafit software. In particular, titration data were fitted to the following equilibria: Enzyme+probe <==> Complex Enzyme-probe, while displacement data were fitted to the following equilibria: Enzyme+probe <==> Complex Enzyme-probe, Enzyme+Compound <==> Complex Enzyme-Compound, whereby binding of probe and compound on the enzyme are mutually exclusive (pure competitive mechanism). Displacement data were also fitted using Excell spreadsheet (Microsoft Inc. Seattle, USA) to a four parameter logistic model (4PL), or Hill-Slope model to calculate DC50s where the DC50 value represents the compound concentration at which the polarization signal is diminished by 50% compared to untreated controls.
(§4) KD values, are the average of three independent experiments.

PARP-1 FL = PARP-1 FL (Homo sapiens (Human), UniProt P09874); assay: Fluorescence polarization probe displacement assay, PARP-1; assay type: binding; details: for DC50: half maximal displacement concentration
Experimental: as §1, §2, §3, §4

[1] = system: PAR formation in HeLa cells; assay: Cellular PAR assay: inhibition of hydrogen peroxide induced PAR formation; details: Homo sapiens, read-out: PAR assay IC50
Experimental: Compounds potencies were evaluated by measuring the inhibition of poly (ADP-ribose) (PAR) chains formation as a marker for PARP-1 inhibition.
Cellular activity of PARP-1 inhibitors was assessed by measuring the inhibition of the hydrogen peroxide induced PAR formation in HeLa cells (ECACC). Cellular PAR levels were measured by immunocytochemistry, and quantified using an ArrayScan vTi instrument (Cellomics Thermo Scientific).
Test compounds were then added at the required concentration for 30′. […] Concentration curves were prepared in MEM/10% FCS from compound stocks in DMSO, and final DMSO concentration was 0.002% (v/v). Duplicate wells for each concentration point were prepared with a typical highest compound concentration of 20 μM and serial dilution 1:3. […] Non-specific binding sites were blocked by incubating wells for 30 min in PBS containing 5% (w/v) FBS 0.05% tween20. […] After washing further 3 times in PBS, cellular PAR immunoreactivity was assessed using the ArrayScan vTi instrument, with a Zeiss 10×0.5 N.A. objective, and applying the Cytotoxicity.V3 algorithm (Cellomics/Thermo Fisher) with a XF100 filter. At least 10 fields, corresponding to at least 900 cells, were read for each well.
The following formula is used: IC50=Bottom+(Top-Bottom)/(1+10^((LogEC50−X))); X is the logarithm of concentration. IC50 is the response; IC50 starts at Bottom and goes to Top with a sigmoid shape.

PARP-3 FL = PARP-3 FL (Homo sapiens (Human), UniProt Q9Y6F1); assay: Fluorescence polarization probe displacement assay, PARP-3; assay type: binding; details: half maximal displacement concentration
Experimental: as §1, §2, §3, §4

[2] = compound P1 as the probe, 250 nM PARP-1

PARP-1 FL, sequence (P09874 whole entry): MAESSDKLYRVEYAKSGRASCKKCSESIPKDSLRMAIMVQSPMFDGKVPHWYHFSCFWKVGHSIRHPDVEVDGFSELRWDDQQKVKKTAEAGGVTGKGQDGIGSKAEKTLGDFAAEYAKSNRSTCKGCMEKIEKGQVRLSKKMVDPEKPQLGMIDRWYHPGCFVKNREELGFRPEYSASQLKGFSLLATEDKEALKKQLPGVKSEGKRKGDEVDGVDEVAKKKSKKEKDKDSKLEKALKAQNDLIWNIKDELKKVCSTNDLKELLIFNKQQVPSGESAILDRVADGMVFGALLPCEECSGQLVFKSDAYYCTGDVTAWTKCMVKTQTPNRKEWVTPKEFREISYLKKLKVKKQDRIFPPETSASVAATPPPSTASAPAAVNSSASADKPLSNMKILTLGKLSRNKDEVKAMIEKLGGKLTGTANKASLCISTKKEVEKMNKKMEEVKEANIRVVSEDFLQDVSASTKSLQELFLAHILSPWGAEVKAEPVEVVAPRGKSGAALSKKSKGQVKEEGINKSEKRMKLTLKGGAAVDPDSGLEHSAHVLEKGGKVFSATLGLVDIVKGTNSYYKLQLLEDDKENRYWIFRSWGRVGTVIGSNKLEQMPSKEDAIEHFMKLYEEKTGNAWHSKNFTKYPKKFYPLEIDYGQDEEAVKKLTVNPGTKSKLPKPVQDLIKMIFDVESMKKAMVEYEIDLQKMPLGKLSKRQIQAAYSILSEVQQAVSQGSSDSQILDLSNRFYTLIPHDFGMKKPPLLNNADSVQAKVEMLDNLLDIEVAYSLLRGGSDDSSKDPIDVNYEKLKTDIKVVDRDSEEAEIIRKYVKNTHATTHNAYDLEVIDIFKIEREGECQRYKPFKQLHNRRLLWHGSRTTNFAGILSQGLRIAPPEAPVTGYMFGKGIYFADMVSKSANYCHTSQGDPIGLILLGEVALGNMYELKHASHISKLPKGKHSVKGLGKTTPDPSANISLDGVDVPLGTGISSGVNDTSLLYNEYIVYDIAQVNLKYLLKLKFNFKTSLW
PARP-3 FL, sequence (Q9Y6F1 whole entry): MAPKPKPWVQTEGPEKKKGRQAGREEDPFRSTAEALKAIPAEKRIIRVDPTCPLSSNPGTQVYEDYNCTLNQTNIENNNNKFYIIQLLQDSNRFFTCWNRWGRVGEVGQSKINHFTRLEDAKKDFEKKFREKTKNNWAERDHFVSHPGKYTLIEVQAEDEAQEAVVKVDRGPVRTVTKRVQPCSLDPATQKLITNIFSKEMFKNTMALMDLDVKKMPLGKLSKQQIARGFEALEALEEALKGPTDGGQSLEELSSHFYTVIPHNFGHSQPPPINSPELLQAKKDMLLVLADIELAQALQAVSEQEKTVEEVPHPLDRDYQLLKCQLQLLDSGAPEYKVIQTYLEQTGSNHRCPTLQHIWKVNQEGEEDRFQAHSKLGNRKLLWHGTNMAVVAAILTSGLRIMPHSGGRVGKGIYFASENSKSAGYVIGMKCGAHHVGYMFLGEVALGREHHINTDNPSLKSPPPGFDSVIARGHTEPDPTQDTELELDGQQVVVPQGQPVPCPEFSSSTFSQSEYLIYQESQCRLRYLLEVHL
PARP-2 FL, sequence (Q9UGN5 whole entry): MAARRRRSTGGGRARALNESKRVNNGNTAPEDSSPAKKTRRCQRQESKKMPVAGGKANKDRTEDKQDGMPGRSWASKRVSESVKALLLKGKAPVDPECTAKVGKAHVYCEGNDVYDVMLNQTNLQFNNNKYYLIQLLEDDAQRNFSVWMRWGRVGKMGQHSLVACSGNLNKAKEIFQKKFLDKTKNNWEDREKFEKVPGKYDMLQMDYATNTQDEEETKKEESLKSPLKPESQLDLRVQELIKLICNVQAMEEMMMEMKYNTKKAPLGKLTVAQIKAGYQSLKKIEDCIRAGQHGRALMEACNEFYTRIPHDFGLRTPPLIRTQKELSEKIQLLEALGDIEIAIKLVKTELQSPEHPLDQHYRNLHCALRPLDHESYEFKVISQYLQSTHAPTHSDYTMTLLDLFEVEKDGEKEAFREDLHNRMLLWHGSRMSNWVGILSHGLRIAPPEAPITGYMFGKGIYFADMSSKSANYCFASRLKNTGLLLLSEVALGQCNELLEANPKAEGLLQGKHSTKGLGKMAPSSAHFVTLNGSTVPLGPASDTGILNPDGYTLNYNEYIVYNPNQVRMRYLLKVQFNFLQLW

Structure (SMILES) | DC50 (PARP-2 FL) [nM] | Kd (PARP-1 FL; [2]) [nM] | DC50 (PARP-1 FL) [nM] | Kd (PARP-1 FL; compound P3 as the probe, 100 nM PARP-1) [nM] | IC50 [1] [nM] | DC50 (PARP-3 FL) [nM]
NC(=O)c1cccc2c1C(=O)N(C1CCN(Cc3ccc4ccccc4n3)CC1)C2 [Compound 16, 3-oxo-2-[1-(quinolin-2-ylmethyl)piperidin-4-yl]-2,3-dihydro-1H-isoindole-4-carboxamide] | 3200 | < 30 | < 250 |  |  | 
NC(=O)c1cc(F)cc2c1C(=O)N(C1CCN(C3CCC(=O)CC3)CC1)C2 [Compound 103, 6-Fluoro-3-oxo-2-[1-(4-oxocyclohexyl)piperidin-4-yl]-2,3-dihydro-1H-isoindole-4-carboxamide] | 3770 |  | < 250 | < 10 | 80 | 4670
NC(=O)c1cccc2c1C(=O)N(C1CCN(Cc3ccc4cc[nH]c4c3)CC1)C2 [Compound 30, 2-[1-(1H-indol-6-ylmethyl)piperidin-4-yl]-3-oxo-2,3-dihydro-1H-isoindole-4-carboxamide] | 5970 |  | < 250 |  | 300 | 
Cc1ncsc1CN1CCC(N2Cc3cccc(C(N)=O)c3C2=O)CC1 [Compound 26, 2-{1-[(4-Methyl-1,3-thiazol-5-yl)methyl]piperidin-4-yl}-3-oxo-2,3-dihydro-1H-isoindole-4-carboxamide] | 6500 | < 30 | < 250 |  | 200 | 
CC(C)Oc1ccccc1CN1CCC(N2Cc3cccc(C(N)=O)c3C2=O)CC1 [Compound 41, 3-oxo-2-{1-[2-(propan-2-yloxy)benzyl]piperidin-4-yl}-2,3-dihydro-1H-isoindole-4-carboxamide] | > 10000 |  | 470 |  |  | 
NC(=O)c1ccc(F)c2c1C(=O)N(C1CCN(C3CCC(F)(F)CC3)CC1)C2 [Compound 101, 2-[1-(4,4-Difluorocyclohexyl)-piperidin-4-yl]-7-fluoro-3-oxo-2,3-dihydro-1H-isoindole-4-carboxamide] | > 10000 |  |  |  |  | > 10000
COC[C@H]1CC[C@@H](N2CCC(N3Cc4cccc(C(N)=O)c4C3=O)CC2)CC1 [Compound 5, 2-{1-[Cis-4-(methoxymethyl)cyclohexyl]piperidin-4-yl}-3-oxo-2,3-dihydro-1H-isoindole-4-carboxamide] | > 10000 | 40 | < 250 |  | 4600 | 
CC(C)Oc1ccc(CN2CCC(N3Cc4cccc(C(N)=O)c4C3=O)CC2)cc1 [Compound 44, 3-oxo-2-{1-[4-(propan-2-yloxy)benzyl]piperidin-4-yl}-2,3-dihydro-1H-isoindole-4-carboxamide] | > 10000 |  | < 250 |  | 500 | 
COC[C@H]1CC[C@H](N2CCC(N3Cc4cccc(C(N)=O)c4C3=O)CC2)CC1 [Compound 6, 2-{1-[Trans-4-(methoxymethyl)cyclohexyl]piperidin-4-yl}-3-oxo-2,3-dihydro-1H-isoindole-4-carboxamide] | > 10000 | < 30 | < 250 |  | 2300 | 
NC(=O)c1cccc2c1C(=O)N(C1CCN(Cc3cccc(Cl)c3)CC1)C2 [Compound 42, 2-[1-(3-Chlorobenzyl)piperidin-4-yl]-3-oxo-2,3-dihydro-1H-isoindole-4-carboxamide] | 4150 | 33 | < 250 |  | 5310 | 
Cc1ccsc1CN1CCC(N2Cc3cccc(C(N)=O)c3C2=O)CC1 [Compound 36, 2-{1-[(3-Methylthiophen-2-yl)methyl]piperidin-4-yl}-3-oxo-2,3-dihydro-1H-isoindole-4-carboxamide] | 9400 | < 30 | < 250 |  | 230 | 
NC(=O)c1cccc2c1C(=O)N(C1CCN(CC3CCN(Cc4ccccc4)CC3)CC1)C2 [Compound 27, 2-{1-[(1-Benzylpiperidin-4-yl)methyl]piperidin-4-yl}-3-oxo-2,3-dihydro-1H-isoindole-4-carboxamide] | > 10000 | < 30 | 260 |  | 320 | 
Cc1ccc(CN2CCC(N3Cc4cccc(C(N)=O)c4C3=O)CC2)s1 [Compound 45, 2-{1-[(5-Methylthiophen-2-yl)methyl]piperidin-4-yl}-3-oxo-2,3-dihydro-1H-isoindole-4-carboxamide] | > 10000 | < 30 | < 250 |  | 360 | 
NC(=O)c1cc(F)cc2c1C(=O)N(C1CCN(C3CCC(Cl)(Cl)CC3)CC1)C2 [Compound 105, 2-[1-(4,4-Dichlorocyclohexyl)piperidin-4-yl]-6-fluoro-3-oxo-2,3-dihydro-1H-isoindole-4-carboxamide] | > 10000 |  |  |  |  | 1080
COc1ccc(CN2CCC(N3Cc4cccc(C(N)=O)c4C3=O)CC2)cc1 [Compound 39, 2-[1-(4-Methoxybenzyl)piperidin-4-yl]-3-oxo-2,3-dihydro-1H-isoindole-4-carboxamide] | > 10000 | < 30 | < 250 |  | 330 | 
NC(=O)c1cccc2c1C(=O)N(CCCN1CCN(c3cccc(Cl)c3)CC1)C2 [Compound 46, 2-{3-[4-(3-Chloro-phenyl)-piperazin-1-yl]-propyl}-3-oxo-2,3-dihydro-1H-isoindole-4-carboxylic acid amide] | 1460 |  | < 250 |  | 400 | 

Structure (SMILES) | DC50 (PARP-2 FL) [nM] | Kd (PARP-1 FL; [2]) [nM] | DC50 (PARP-1 FL) [nM] | Kd (PARP-1 FL; compound P3 as the probe, 100 nM PARP-1) [nM] | IC50 [1] [nM] | DC50 (PARP-3 FL) [nM]
NC(=O)c1cc(Cl)cc2c1C(=O)N(C1CCN(C3CCC(F)(F)CC3)CC1)C2 [Compound 100, 2-[1-(4,4-Difluorocyclohexyl)-piperidin-4-yl]-6-chloro-3-oxo-2,3-dihydro-1H-isoindole-4-carboxamide] | > 10000 |  |  |  |  | 790
Cc1ccc(CN2CCC(N3Cc4cccc(C(N)=O)c4C3=O)CC2)cc1C [Compound 18, 2-[1-(3,4-Dimethylbenzyl)piperidin-4-yl]-3-oxo-2,3-dihydro-1H-isoindole-4-carboxamide] | > 10000 | < 30 | < 250 |  | 7100 | 
CCc1ccc(CN2CCC(N3Cc4cccc(C(N)=O)c4C3=O)CC2)cc1 [Compound 43, 2-[1-(4-Ethylbenzyl)piperidin-4-yl]-3-oxo-2,3-dihydro-1H-isoindole-4-carboxamide] | > 10000 | < 30 | < 250 |  | 2660 | 
CCCOc1ccc(CN2CCC(N3Cc4cccc(C(N)=O)c4C3=O)CC2)cc1 [Compound 37, 3-oxo-2-[1-(4-propoxybenzyl)piperidin-4-yl]-2,3-dihydro-1H-isoindole-4-carboxamide] | > 10000 | < 30 | < 250 |  | 260 | 
NC(=O)c1cccc2c1C(=O)N(C1CCN(Cc3cccc(F)c3)CC1)C2 [Compound 13, 2-[1-(3-Fluorobenzyl)piperidin-4-yl]-3-oxo-2,3-dihydro-1H-isoindole-4-carboxamide] | > 10000 | < 30 | < 250 |  |  | 
CC(C)c1ccc(CN2CCC(N3Cc4cccc(C(N)=O)c4C3=O)CC2)cc1 [Compound 38, 3-oxo-2-{1-[4-(propan-2-yl)benzyl]piperidin-4-yl}-2,3-dihydro-1H-isoindole-4-carboxamide] | > 10000 | < 30 | < 250 |  | 260 | 
Cc1c(CN2CCC(N3Cc4cccc(C(N)=O)c4C3=O)CC2)cnn1C [Compound 34, 2-{1-[(1,5-Dimethyl-1H-pyrazol-4-yl)methyl]piperidin-4-yl}-3-oxo-2,3-dihydro-1H-isoindole-4-carboxamide] | > 10000 | 130 | 340 |  | 900 | 
NC(=O)c1cccc2c1C(=O)N(C1CCN(Cc3ccc(F)cc3)CC1)C2 [Compound 11, 2-[1-(4-Fluorobenzyl)piperidin-4-yl]-3-oxo-2,3-dihydro-1H-isoindole-4-carboxamide] | > 10000 |  |  |  |  | 
CCOc1cccc(CN2CCC(N3Cc4cccc(C(N)=O)c4C3=O)CC2)c1 [Compound 40, 2-[1-(3-Ethoxybenzyl)piperidin-4-yl]-3-oxo-2,3-dihydro-1H-isoindole-4-carboxamide] | > 10000 | 110 | < 250 |  | 620 | 
NC(=O)c1cccc2c1C(=O)N(C1CCN(Cc3ccccc3F)CC1)C2 [Compound 12, 2-[1-(2-Fluorobenzyl)piperidin-4-yl]-3-oxo-2,3-dihydro-1H-isoindole-4-carboxamide] | > 10000 | < 30 | < 250 |  |  | 
NC(=O)c1cccc2c1C(=O)N(C1CCN(Cc3cccc4[nH]ccc34)CC1)C2 [Compound 28, 2-[1-(1H-indol-4-ylmethyl)piperidin-4-yl]-3-oxo-2,3-dihydro-1H-isoindole-4-carboxamide] |  | 34 | < 250 |  | 190 | 
COc1cccc(CN2CCC(N3Cc4cccc(C(N)=O)c4C3=O)CC2)c1 [Compound 35, 2-[1-(3-Methoxybenzyl)piperidin-4-yl]-3-oxo-2,3-dihydro-1H-isoindole-4-carboxamide] | > 10000 | < 30 | < 250 |  | 300 | 
Cn1cc(CN2CCC(N3Cc4cccc(C(N)=O)c4C3=O)CC2)cn1 [Compound 33, 2-{1-[(1-Methyl-1H-pyrazol-4-yl)methyl]piperidin-4-yl}-3-oxo-2,3-dihydro-1H-isoindole-4-carboxamide] | > 10000 |  | < 250 |  | 1100 | 
NC(=O)c1cccc2c1C(=O)N(C1CCN(Cc3ccc(F)cc3F)CC1)C2 [Compound 17, 2-[1-(2,4-Difluorobenzyl)piperidin-4-yl]-3-oxo-2,3-dihydro-1H-isoindole-4-carboxamide] | > 10000 | < 30 | < 250 |  | 5770 | 
NC(=O)c1cccc2c1C(=O)N(CC1CCN(Cc3ccc(F)cc3)CC1)C2 [Compound 51, 2-{[1-(4-Fluorobenzyl)piperidin-4-yl]methyl}-3-oxo-2,3-dihydro-1H-isoindole-4-carboxamide] | 5680 | < 30 | < 250 |  | 160 | 
